Where “and” joins values, the source holds several entries; their conditions need not be identical. Equal values may be shown once.
Tests used:
Human recombinant MMP9 = Human recombinant MMP9 (Homo sapiens, UniProt P14780); assay: MMP9 (Gelatinase B) inhibition, 14C gelatin release; assay type: biochemical; conditions: 37° C., 16 hours; read-out: MMP-9 inhibitory activity, IC50
[1] = test system: Arp-1 human myeloma cancer cells; assay: Membrane Invasion Culture System (MICS) chemo-invasion assay; assay type: cell-based; conditions: 24 hours, + = increased invasiveness
In short: (§1)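 Fifty thousand cells were seeded above a 35 μm laminin/collagen IV/gelatin barrier on a 10 μm-pore filter, with serum-free RPMI plus 50% fibroblast-conditioned medium below as chemoattractant. Compound at 1, 10 or 25 μg/ml, or DMSO vehicle, was present for 24 h. Invaded cells were collected, Wright-stained and counted over 5 fields.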

[2] = test system: PC-3 ML human prostate cancer cells; assay: as above; assay type: cell-based; conditions: 24 hours, + = increased invasiveness
In short: as §1

[3] = test system: Ark human myeloma cancer cells; assay: as above; assay type: cell-based; conditions: 24 hours, + = increased invasiveness
In short: as §1

[4] = test system: MDA-MB-231 human breast cancer cells; assay: as above; assay type: cell-based; conditions: 24 hours, + = increased invasiveness
In short: as §1

[5] = test system: C8161 human melanoma cells; assay: as above; assay type: cell-based; conditions: 24 hours, + = increased invasiveness
In short: as §1

Human recombinant MMP14 = Human recombinant MMP14 (Homo sapiens, UniProt P50281); assay: MMP14 (MTI-MMP) inhibition, 14C collagen release; assay type: biochemical; conditions: 35° C., 15 hours; read-out: MMP-14 inhibitory activity, IC50
Method: Protocol for Measuring MMP14 (MTI-MMP) Inhibition by Tetracycline Derivatives
MMP14 activity was determined by the release of soluble ^14C labelled collagen fragments from ^14C acetylated rat skin type I collagen (Methods in Enzymology 80 711, 1981).
• 100 μg ^14C labelled collagen (5–6000 dpm) • 50 mM Tris HCL pH 7.9 • 15 mM CaCl2 0.02% azide • Human recombinant MMP14 50–100 nM • ±Tetracycline (up to 1 mM) in a total volume of 300 μl.
Incubations were at 35° C. for 15 hours. Uncleaved collagen fibrils (which form within the first 10 minutes) were removed by centrifugation at 10,000 g 4° C. 10 minutes 200 μl supernatant were counted in Packard Opti Phase Supermix scintillation fluid using a scintillation counter. Only data derived from within the linear part of the assay (10–70% lysis of the collagen) were utilized. Based on percentage inhibition of the activity of MMP1 alone by a range of concentrations of each sample, the IC50 value for each tetracycline was calculated.

Human recombinant MMP7 = target: T1, Human recombinant MMP7 (Homo sapiens, UniProt P09237); assay: MMP7 (Matrilysin) inhibition, 14C casein release; assay type: biochemical; conditions: 37° C., 16 hours; read-out: MMP-7 inhibitory activity, IC50
T1 sequence (P09237 95-267): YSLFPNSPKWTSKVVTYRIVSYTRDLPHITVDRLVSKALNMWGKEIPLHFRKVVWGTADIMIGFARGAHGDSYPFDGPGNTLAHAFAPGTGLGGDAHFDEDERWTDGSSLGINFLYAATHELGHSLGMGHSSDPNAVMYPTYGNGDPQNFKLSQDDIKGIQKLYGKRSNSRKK
Method: MMP7 activity was determined by the release of trichloracetic acid, TCA, soluble fragments from ^14C acetylated β casein (Sigma) as described in Methods in Enzymology 248, 451 (1995).
• 100 μg ^14C casein (7000 dpm) • 50 mM Tris HCl, pH 7.9 • 15 mM CaCl2, 0.02% azide • Human recombinant MMP7, 1.5 nM • ±tetracycline (up to 1 mM) in a total volume of 250 μl.
Incubations were at 37° C. for 16 hours. The incubation was stopped by the addition of 500 μl cold 18% TCA and standing on ice for 15 minutes. TCA precipitates were removed by centrifugation at 10,000 g for 10 minutes at 4° C., and 200 μl supernatant was taken for scintillation counting. Only data derived from within the linear part of the assay (10–60% lysis) were utilized. The percentage inhibition of MMP7 by each concentration of the candidate tetracycline were plotted to derive the IC50 value.

Human recombinant MMP3 = Human recombinant MMP3 (Homo sapiens, UniProt P08254); assay: MMP3 (Stromelysin 1) inhibition, 14C casein release; assay type: biochemical; conditions: 37° C., 16 hours; read-out: MMP-3 inhibitory activity, IC50
Chain of Human recombinant MMP3 (P08254 100-477): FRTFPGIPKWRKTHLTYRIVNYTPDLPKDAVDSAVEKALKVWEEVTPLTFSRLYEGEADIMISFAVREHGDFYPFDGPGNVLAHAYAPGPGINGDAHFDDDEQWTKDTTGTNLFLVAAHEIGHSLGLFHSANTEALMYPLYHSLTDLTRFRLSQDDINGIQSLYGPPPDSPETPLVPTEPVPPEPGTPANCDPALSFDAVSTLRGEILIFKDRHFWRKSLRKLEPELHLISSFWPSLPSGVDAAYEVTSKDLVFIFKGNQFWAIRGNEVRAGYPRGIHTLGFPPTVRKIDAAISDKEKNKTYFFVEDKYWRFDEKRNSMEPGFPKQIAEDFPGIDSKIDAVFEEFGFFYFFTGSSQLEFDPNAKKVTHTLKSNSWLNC

MMP2 (Gelatinase A) = target: T2, MMP2 (Gelatinase A) (Homo sapiens, UniProt P08253); assay: MMP2 (Gelatinase A) inhibition, 14C gelatin release; assay type: biochemical; conditions: 37° C., 16 hours; read-out: MMP-2 inhibitory activity, IC50
T2 sequence (P08253 110-660): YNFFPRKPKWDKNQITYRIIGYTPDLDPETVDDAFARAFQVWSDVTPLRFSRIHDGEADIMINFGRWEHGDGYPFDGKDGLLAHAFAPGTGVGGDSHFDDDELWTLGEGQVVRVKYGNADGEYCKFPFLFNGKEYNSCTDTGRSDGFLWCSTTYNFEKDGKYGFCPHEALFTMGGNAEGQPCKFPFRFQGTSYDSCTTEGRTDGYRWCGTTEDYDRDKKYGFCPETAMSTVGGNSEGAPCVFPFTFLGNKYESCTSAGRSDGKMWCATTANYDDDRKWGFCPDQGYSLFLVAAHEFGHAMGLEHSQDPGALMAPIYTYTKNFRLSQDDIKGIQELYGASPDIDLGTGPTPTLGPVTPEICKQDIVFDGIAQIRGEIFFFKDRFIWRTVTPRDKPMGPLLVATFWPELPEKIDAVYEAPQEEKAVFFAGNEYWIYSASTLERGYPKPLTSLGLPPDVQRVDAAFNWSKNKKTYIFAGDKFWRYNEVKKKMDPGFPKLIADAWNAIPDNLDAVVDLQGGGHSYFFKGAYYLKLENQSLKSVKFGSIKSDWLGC
Method: Protocol for Measuring MMP2 (Gelatinase A) Inhibition
MMP2 activity was determined by the release of trichloracetic acid, TCA, soluble fragments from ^14C acetylated rat skin type I gelatin (Methods in Enzymology 248, 470, 1995. Biochem. J. 195, 1981)
• 100 μg ^14C labelled gelatin (type I collagen denatured 60° C. 20 min) • 50 mM Tris HCl pH 7.9 • 15 mM CaCl2, 0.02% azide • Human recombinant MMP1, 0.1–0.5 nM • ±Tetracycline (up to 1 MM) in a total volume of 250 μl.
Incubations were set at 37° C. for 16 hours. The reaction was stopped by cooling the incubations and addition of 50 μl cold 90% (w/v) trichloracetic acid with careful mixing. TCA precipitation was allowed to proceed for 15 minutes at 4° C. prior to cetrifugation at 10,000 g for 10 minutes at 4° C. 200 μl of the TCA supernatant was taken for the determination of radioactive content by scintillation counting (Packard Opti Phase Supermix scintillation fluid). Only data derived from within the linear part of the assay (10–70% lysis) were utilized. The percentage inhibition of MMP2 by each tetracycline concentration was plotted to derive the IC50 value, using linear regression analysis.

Human recombinant MMP1 = target: T3, Human recombinant MMP1 (Homo sapiens, UniProt P03956); assay: MMP1 (Collagenase-1) inhibition, 14C collagen release; assay type: biochemical; conditions: 35° C., 5 hours; read-out: MMP-1 inhibitory activity, IC50
T3 sequence (P03956 100-469): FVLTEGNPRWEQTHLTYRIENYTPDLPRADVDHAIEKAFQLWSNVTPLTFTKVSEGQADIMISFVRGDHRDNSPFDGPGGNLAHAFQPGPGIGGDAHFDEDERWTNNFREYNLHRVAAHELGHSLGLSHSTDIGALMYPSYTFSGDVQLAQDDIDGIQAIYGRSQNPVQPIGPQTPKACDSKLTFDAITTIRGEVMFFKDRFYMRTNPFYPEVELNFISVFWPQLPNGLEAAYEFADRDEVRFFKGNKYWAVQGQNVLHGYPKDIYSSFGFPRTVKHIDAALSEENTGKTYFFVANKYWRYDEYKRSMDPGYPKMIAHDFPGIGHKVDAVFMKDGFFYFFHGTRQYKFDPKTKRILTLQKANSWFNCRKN
Method: Protocol for Measuring MMP1 (Collagenase-1) Inhibition by Tetracycline Derivatives
MMP1 activity was determined by the release of soluble ^14C labelled collagen fragments from ^14C acetylated rat skin type I collagen (Methods in Enzymology 80 711, 1981).
• 100 μg ^14C labelled rat skin type I collagen (5–6000 dpm) • 50 mM Tris HCl pH 7.9 • 15 mM CaCl2 0.02% azide • Human recombinant MMP1 3–4 nM • ±Tetracycline (up to 1 mM) in a total volume of 300 μl.
Incubations were at 35° C. for 5 hours. Uncleaved collagen fibrils (which form within the first 10 minutes) were removed by centrifugation at 10,000 g, 4° C., 10 minutes. 200 μl supernatant were counted in Packard Opti Phase Supermix scintillation fluid using a scintillation counter. Only data derived from within the linear part of the assay (10–70% lysis of the collagen) were utilized. Based on percentage inhibition of the activity of MMP1 alone by a range of concentrations of each sample, the IC50 value for each tetracycline was calculated by linear regression analysis.

[6] = test system: RPMI-8226 human myeloma cancer cells; assay: Membrane Invasion Culture System (MICS) chemo-invasion assay; assay type: cell-based; conditions: 24 hours, + = increased invasiveness
In short: as §1

Chain of Human recombinant MMP9 (P14780 94-707): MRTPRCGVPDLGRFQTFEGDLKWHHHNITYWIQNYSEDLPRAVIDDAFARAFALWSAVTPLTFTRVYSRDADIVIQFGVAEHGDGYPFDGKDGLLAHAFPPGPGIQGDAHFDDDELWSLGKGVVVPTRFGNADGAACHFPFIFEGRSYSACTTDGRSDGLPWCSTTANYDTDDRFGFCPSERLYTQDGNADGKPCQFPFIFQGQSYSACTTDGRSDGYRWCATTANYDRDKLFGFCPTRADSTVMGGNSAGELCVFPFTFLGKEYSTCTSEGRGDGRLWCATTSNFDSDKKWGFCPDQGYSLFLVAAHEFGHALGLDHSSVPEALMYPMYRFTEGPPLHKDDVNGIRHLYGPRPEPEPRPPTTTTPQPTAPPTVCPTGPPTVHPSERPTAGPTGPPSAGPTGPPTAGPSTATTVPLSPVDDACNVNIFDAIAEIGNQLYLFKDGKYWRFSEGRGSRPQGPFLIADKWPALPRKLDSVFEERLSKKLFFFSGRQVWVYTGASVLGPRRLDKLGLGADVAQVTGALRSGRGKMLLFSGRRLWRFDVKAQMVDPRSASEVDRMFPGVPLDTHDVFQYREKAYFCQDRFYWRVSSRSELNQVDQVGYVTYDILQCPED

Structure (SMILES) | IC50 (Human recombinant MMP9) | percent inhibition, PC-3 ML (Prostrate) ([2]; 1 ug/mL) | percent inhibition, PC-3 ML (Prostrate) ([2]; 10 ug/mL) | percent inhibition, PC-3 ML (Prostrate) ([2]; 25 ug/mL) | percent inhibition, ARK ([3]; 1 ug/mL) | percent inhibition, ARK ([3]; 10 ug/mL) | percent inhibition, ARK ([3]; 25 ug/mL) | percent inhibition, MDA-MB-231 (Breast) ([4]; 1 ug/mL) | percent inhibition, MDA-MB-231 (Breast) ([4]; 10 ug/mL) | percent inhibition, MDA-MB-231 (Breast) ([4]; 25 ug/mL) | percent inhibition, C8161 (Melanoma) ([5]; 1 ug/mL) | percent inhibition, C8161 (Melanoma) ([5]; 10 ug/mL) | percent inhibition, C8161 (Melanoma) ([5]; 25 ug/mL) | IC50 (Human recombinant MMP14) | IC50 (Human recombinant MMP7) | IC50 (Human recombinant MMP3) | IC50 (MMP2 (Gelatinase A)) | IC50 (Human recombinant MMP1) | percent inhibition, RPMI-8226 (Multiple Myeloma) ([6]; 1 ug/mL) | percent inhibition, RPMI-8226 (Multiple Myeloma) ([6]; 10 ug/mL) | other results
CC(C)Nc1ccc2c(c1O)C(=O)C1=C(O)C3(O)C(=O)C(C(N)=O)=C(O)C(N(C)C)C3C(O)C1C2C (stereo not shown) [Compound 3, 9-Isopropylamino-6-deoxy-5-hydroxytetracycline H2SO4] | 136 µM | 3% | +1% | 25^B percent | +11% | +6% | +15% | +8% | +2% | 12% | 30^B percent | 22^B percent | 15^B percent | 216 µM | > 1000 µM | 304 µM | > 1000 µM | > 1000 µM |  |  | percent inhibition, ARP-1 ([1]; 1 ug/mL): +13%; percent inhibition, ARP-1 ([1]; 10 ug/mL): +1%; percent inhibition, ARP-1 ([1]; 25 ug/mL): +16%
CN(C)c1cc(N=[N+]=[N-])c(O)c2c1CC1CC3C(N(C)C)C(O)=C(C(N)=O)C(=O)C3(O)C(O)=C1C2=O (stereo not shown) [Compound 10, 9-Azido-7-demethylamino-6-demethyl-6-deoxytetracycline H2SO4] | 41 µM |  |  |  | 6% | +7% | 1% |  |  |  |  | 22% and 28^B percent |  | 53 µM | > 1000 µM | 96 µM | 484 µM | 499 µM | 3% | 5% | percent inhibition, RPMI-8226 (Multiple Myeloma) ([6]; 25 ug/mL): 29^B percent
CC1c2ccc(N=[N+]=[N-])c(O)c2C(=O)C2=C(O)C3(O)C(=O)C(C(N)=O)=C(O)C(N(C)C)C3C(O)C21 (stereo not shown) [Compound 6, 9-Azido-6-deoxy-5-hydroxytetracycline H2SO4] | 83 µM | 21% and 13% | 26% and 32^B percent | 41^B percent and 30^B percent | 12% | 0% | 8% |  |  | 27^B percent and 42^B percent |  | 33^B percent and 21^B percent | 32^B percent and 33^B percent | 56 µM | > 1000 µM and < 1000 µM | 241 µM | 135 µM | 394 µM |  |  | 
CN(C)C1C(O)=C(C(N)=O)C(=O)C2(O)C(O)=C3C(=O)c4c(O)c(Br)cc(Br)c4CC3CC12 (stereo not shown) [Compound 13, 7,9-Dibromo-6-demethyl-6-deoxytetracycline H2SO4] | 64 µM | 8% | 23^B percent | 13% | 2% | +7% | 1% | 4% | 0% | +9% | 6% | 12% | 14% | 14 µM | > 1000 µM | 206 µM | 48 µM | 126 µM | +11% | +13% | percent inhibition, RPMI-8226 (Multiple Myeloma) ([6]; 25 ug/mL): +12%

Source: US7214669B2, “Tetracycline derivatives and methods of use thereof” (Tetragenex Pharmaceuticals, Inc., priority 2001, dated 2007)
